The source of these data is patent US20250144054A1, “SMALL MOLECULE STAT3 INHIBITOR FOR TREATING TRIPLE NEGATIVE BREAST CANCER” (UNIVERSITY OF MARYLAND, BALTIMORE, priority 2022, published 2025).

One data set deals with ovarian cancer cells. The following applies: ref [45]; cited from earlier work.
The next data set relates to STAT1. Kind of data set: IFN-γ induced STAT1 phosphorylation, Western blot, T47D cells. The following applies: pretreated 2 hours, 50 ng/ml IFN-γ 30 minutes. The data set is classed as cell-based, human. The method, then:
(§1) (A) The chemical structures of LLL12B and LLL12. The carbamate ester bond of LLL12B is hydrolytically cleaved by the tumor-associated plasmin to release LLL12. (B) SUM159 cells were seeded in a 6-well plate and treated with LLL12B for 8 hours. Cells were stained with Phospho-Stat3 (Tyr705) and DAPI (indicated by arrows). Green: P-STAT3 (Y705); Blue: DAPI. T47D (C) and MDA-MB-231 (D) breast cancer cells were pretreated with DMSO or LLL12B in a serum-free medium for 2 hours and stimulated with 50 ng/ml of IL-6, IFN-γ, or EGF for additional 30 minutes. Cells were collected and analyzed by Western blot. GAPDH served as a protein loading control.
(§2) Western blot. Cells were collected and total protein was extracted using cell lysis buffer (Cell Signaling Technology, Danvers, MA, USA). Protein concentration was determined using the Pierce BCA Protein Assay Kit (Thermo Fisher Scientific, Waltham, MA, USA) according to the manufacturer's instructions. Equal amounts of protein were separated by 10% SDS-PAGE gels and transferred to PVDF membranes. Membranes were blocked in 5% non-fat milk at room temperature and probed with specific antibodies P-STAT3 (Y705), STAT3, Cyclin D1, Cleaved Caspase-3, P-STAT1 (Y701), STAT1, P-ERK, ERK or GAPDH (1:1000, Cell Signaling Technology, Danvers, MA, USA) at 4° C. overnight. […]

A further data set deals with caspase-3/7. As to the kind of experiment: Caspase-3/7 activity assay, SUM159 cells. The format is cell-based, human. To be noted: SUM159, 5 hours, vs DMSO. How it is done: Caspase-3/7 activity assay. The Caspase-3/7 Fluorescence Assay Kit (Cayman, Ann Arbor, MI, USA) was used to detect the activation of caspase-3/7 and the assay was performed according to the manufacturer's instructions. Briefly, MDA-MB-231, SUM159, and 4T1 cells were seeded in a 96-well plate in triplicate. After overnight incubation, cells were treated with either LLL12B or DMSO for 5 hours. Cells were lysed and processed to measure caspase-3/7 activity and the fluorescence intensity was read (excitation=485 nm; emission=535 nm).

The conditions of data set [1]: refs [25,28]; cited from earlier work.
In the next data set the test system is ERK. Kind of data set: EGF induced ERK phosphorylation, Western blot, T47D cells. The data set is classed as cell-based, human. To be noted: pretreated 2 hours, 50 ng/ml EGF 30 minutes. How it is done:
as §1, §2
(A western blot detects proteins with antibodies after separation by electrophoresis.)

In another data set the test system is 4T1 cells. As to the kind of experiment: Colony formation assay, 4T1 cells. The data set is classed as cell-based, murine. The following applies: 4T1, 24 hours treatment, 7 days drug-free, vs DMSO. The method, then: Colony formation assay. MDA-MB-231, SUM159, and 4T1 cells were seeded in a 6-well plate at a density of 1000 cells/well and treated with DMSO or LLL12B for 24 hours, and then cultured in a drug-free culture medium for 7 days. Colonies were fixed with methanol for 30 min and stained with 1% crystal violet in 25% methanol for 2 hours at room temperature.

The subject of another data set is HPAC cells. Kind of data set: Wound healing assay, HPAC cells. The format is cell-based, human. The following applies: approximate 24 hours. How it is done: The inhibitory effects on cell migration by LLL12B in pancreatic cancer cells was also examined. The human HPAC pancreatic cancer cells were seeded and allowed to attach for 24 hours. Then cells were treated with different concentrations of LLL12B for approximate 24 hours and the cell migration was determined by wound healing assay.

The subject of a further data set is MDA-MB-231 cells. Kind of data set: Wound healing assay, MDA-MB-231 cells. The format is cell-based, human. To be noted: MDA-MB-231, vs DMSO. How it is done: Wound healing assay. MDA-MB-231, SUM159, and 4T1 cells were seeded in a 6-well plate and cultured until fully confluent. A straight scratch crossing the monolayer was created using a 200 μl pipette tip and images of scratched areas were taken. Next, cells were treated with DMSO or LLL12B. Then, images were taken until the scratch of DMSO-treated cells was closed and the relative migration (%) was calculated.
Given the relevance between cancer cell migration and metastasis, cell migration was evaluated using wound healing assay following LLL12B and Talazoparib treatment.
In FIG. 12, L: LLL12B; T: Talazoparib; L0.5:0.5 μM LLL12B; L0.25:0.25 μM LLL12B; T0.5:0.5 μM Talazoparib; T10: 10 μM Talazoparib. In FIG. 13, L: LLL12B; T: Talazoparib; L0.5:0.5μ M LLL12B; T10: 10μ M Talazoparib; T20: 20μ M Talazoparib. In FIG. 14, L: LLL12B; T: Talazoparib; L0.5:0.5μ M LLL12B; T10: 10μ M Talazoparib; T20: 20μ M Talazoparib.
L: LLL12B; A: Abemaciclib; L0.5:0.5 μM LLL12B; A2.5:2.5 μM Abemaciclib; A1: 1 μM Abemaciclib

Consider `CN(C)C(=O)Oc1cccc2c1C(=O)c1cccc(S(N)(=O)=O)c1C2=O` [LLL12B], for which the “sensitization to paclitaxel and cisplatin” value in the data set on ovarian cancer cells is recorded as “sensitized”. Also, the “induction of P-STAT1 (Y701) stimulated by IFN-γ” value with STAT1 was “did not inhibit”. The “activation of caspase-3/7” value with caspase-3/7 is “induced the activation”. Also, in data set [1], the “in vivo pharmacokinetic properties compared to LLL12” value is “superior”. Also, in the data set on ERK, the “induction of P-ERK stimulated by EGF” value was “did not inhibit”. In the data set on 4T1 cells, the colony numbers entry is on record as “significant reduction”. Also, in the data set on HPAC cells, the cell migration entry is reported as “significantly inhibits”. Further, the “wound closure (cell migration)” value with MDA-MB-231 cells is reported as “effectively inhibited”.
